Laboratory results reported in publication doi:10.1101/2022.02.10.479976v1 (bioRxiv, 2022).
Several values for one entry are separate records, joined by “and”; a condition that tells them apart may be missing. Identical values can stand only once.

Legend:
[1] = Distribution of calcitonin in sub-compartments of sheep blood in vitro; format: in vitro ADME; settings: calcitonin treated group, 2.5 ng/ml; sum of all five compartments = 100 percent
[2] = cited from earlier work
[3] = cited from earlier work; remark: listed apart in the source
[4] = cited from earlier work; remark: listed apart in the source

Row | Substance | distribution of calcitonin associated with RBC [1] | distribution of calcitonin in plasma [1] | distribution of calcitonin on WBC-surface [1] | half-life [2] | bioavailability ([2]; parenteral delivery, various formulations) | sustained pharmacodynamic effects (duration) [3] | plasma protein binding [4] | elimination half-life [2]
1 | Calcitonin | less than 8% | ~30% | ~30% and ~40% | 40 to 60 min | up to 70% | 18 to 22 h | ~40% | –
2 | salmon Calcitonin | – | – | – | – | – | – | – | 54 to 76 min
